Test results published in US5994334A, “Androgen synthesis inhibitors” (priority 1997, dated 1999).
“Also recorded” adds a separate entry of the source. Like-named read-outs stand apart in the source and are kept apart here.

Key:
[1] = target: T1, human 17α-hydroxylase/C17,20-lyase (Homo sapiens, UniProt P05093); assay: Inhibition of human testicular 17α-hydroxylase/C17,20-lyase (enzyme complex as a whole); type: biochemical; details: for times more potent than ketoconazole: vs ketoconazole
T1 construct: incubating human testicular microsomes; from tissue; host or cells: human testis, microsomes
T1 sequence (P05093 1-508): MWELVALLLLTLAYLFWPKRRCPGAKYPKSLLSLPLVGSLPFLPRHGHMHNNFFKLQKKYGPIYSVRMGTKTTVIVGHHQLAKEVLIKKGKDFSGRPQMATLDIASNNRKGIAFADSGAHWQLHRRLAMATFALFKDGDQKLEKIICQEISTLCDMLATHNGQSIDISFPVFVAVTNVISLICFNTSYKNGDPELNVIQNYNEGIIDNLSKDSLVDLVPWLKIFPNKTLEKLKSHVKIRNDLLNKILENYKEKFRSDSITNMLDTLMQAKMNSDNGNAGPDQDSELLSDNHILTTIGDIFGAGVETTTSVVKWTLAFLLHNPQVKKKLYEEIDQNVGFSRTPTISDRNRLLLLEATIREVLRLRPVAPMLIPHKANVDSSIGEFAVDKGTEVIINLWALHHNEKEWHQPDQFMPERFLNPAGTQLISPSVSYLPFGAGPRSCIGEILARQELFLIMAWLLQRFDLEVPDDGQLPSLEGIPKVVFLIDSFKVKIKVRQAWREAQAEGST
Method: (§1) The conversion of radiolabeled pregnenolone to 17α-hydroxypregnenolone and DHEA by 17α-hydroxylase/C17,20 -lyase was measured by incubating human testicular microsomes with different concentration of test compounds. Reverse phase HPLC was used to separate and accurately quantify the amount of substrate and metabolites. The 17α-hydroxylase and C17,20 -lyase activities were calculated separately. The activity of 17α-hydroxylase was calculated from the conversion of pregnenolone to 17α-hydroxypregnenolone and DHEA and the activity of C17,20 -lyase was based on the conversion of pregnenolone to DHEA. Although 17α-hydroxypregnenolone is the substrate converted to DHEA by C17,20 -lyase, it has been reported that this 17α-hydroxy intermediate is not released from the enzyme binding site during conversion (Nakajin et al., 1981a,b). Also, there are species differences in substrate requirements. Pregnenolone is the natural substrate rather than progesterone for human testicular 17α-hydroxylase and C17,20 -lyase. Therefore, pregnenolone was used as substrate for measuring the activity of this enzyme complex.

[2] = target: T2, Human Prostatic 5α-Reductase (Homo sapiens, UniProt P31213); assay: Inhibition of human prostatic 5α-reductase (prostatic microsomes, [3H]testosterone); details: for IC50: IC50 5α-reductase; for inhibition at 0.1 µM: read-out: % Inhibition of 5α-reductase, [I] 100 nM; for inhibition at 0.01 µM: read-out: % Inhibition of 5α-reductase, [I] 10 nM
T2 sequence (P31213 1-254): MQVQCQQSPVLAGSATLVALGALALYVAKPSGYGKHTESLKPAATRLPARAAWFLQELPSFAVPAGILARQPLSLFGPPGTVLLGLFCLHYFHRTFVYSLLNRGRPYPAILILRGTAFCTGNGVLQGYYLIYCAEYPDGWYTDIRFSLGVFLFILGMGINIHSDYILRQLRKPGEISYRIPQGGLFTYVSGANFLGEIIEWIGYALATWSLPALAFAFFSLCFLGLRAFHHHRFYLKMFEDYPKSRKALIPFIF
Method: The 5α-reductase assay is performed by incubating human prostatic microsomes (approx. 0.6 mg protein in 0.5 ml phosphate buffer) with [7-^3 H]testosterone (10 mM. 6×10^5 dpm) with a NADPH generating system (NADP 0.65 mM; glucose-6-phosphate 7.1 mM; glucose-6-phosphate dehydrogenase 2.5 IU in 100 μl phosphate buffer) and candidate inhibitors at concentrations of 10 nM and 100 nM under oxygen for 30 min at 37° C. […] The steroids are extracted with ether and separated by chromatography on TLC (chloroform:ether 80:20). […] The steroids are scraped from the plate and radioactivity measured.

[3] = target: T3, Human Testicular C17,20-lyase (Homo sapiens, UniProt P05093); assay: Inhibition of human testicular C17,20-lyase (pregnenolone substrate, testicular microsomes); type: biochemical
T3 construct: incubating human testicular microsomes; from tissue; host or cells: human testis, microsomes
T3 sequence (P05093 1-508): T1 sequence (P05093 1-508)
Method: as §1

[4] = target: T4, Human Testicular 17α-Hydroxylase (Homo sapiens, UniProt P05093); assay: Inhibition of human testicular 17α-hydroxylase (pregnenolone substrate, testicular microsomes); type: biochemical
T4 construct: incubating human testicular microsomes; from tissue; host or cells: human testis, microsomes
T4 sequence (P05093 1-508): T1 sequence (P05093 1-508)
Method: as §1

[5] = Table 1, NI = no inhibition, CI = complete inhibition, read-out: IC50 C17,20 lyase
[6] = Table 1, NI = no inhibition, read-out: IC50 17α-OHase
[7] = second figure of pair, read-out: IC50 C17,20-lyase
[8] = Table 3, first figure of 17α-hydroxylase/lyase pair, read-out: IC50 17α-hydroxylase
[9] = first figure of pair, read-out: IC50 17α-hydroxylase

Row | SMILES | inhibition of 17α-hydroxylase/C17,20-lyase (in words) ([1]; NI = no inhibition) | times more potent than ketoconazole [1] | IC50 [2] [nM] | IC50 ([2]; Table 2) [nM] | IC50 ([2]; Table 3, NI = no inhibition) [nM] | inhibition of 5α-reductase (in words) ([2]; NI = no inhibition) | inhibition at 0.1 µM [2] [%] | IC50 [3, 5] [nM] | IC50 [4, 6] [nM] | other results
1 | CC(=O)C1=CC[C@H]2[C@@H]3CCC4=CC(=O)CC[C@]4(C)[C@H]3CC[C@]12C [Compound L-13, 16-dehydroprogesterone] | potent inhibitors of both enzymes | 10-50 times | 22 | 22 | 21.8 | potent inhibition of 5α-reductase; also recorded: almost equipotent with finasteride | 87.8 |  |  | inhibition at 0.4 µM ([2]; read-out: % Inhibition of 5α-reductase, [I] 400 nM): 96.4%; IC50 ([3]; IC50 C17,20-lyase): 24 nM; IC50 ([3]; IC50 C17,20 lyase): 24 nM; IC50 ([3]; IC50 lyase): 23.7 nM; IC50 ([4]; IC50 17α-OHase): 73 nM; IC50 ([4]; IC50 17α-hydroxylase): 72.7 nM; IC50 ([4]; IC50 17α-hydroxylase (text)): 73 nM
2 | C[C@]12CC[C@H]3[C@@H](CC=C4C[C@@H](O)CC[C@@]43C)[C@@H]1CC[C@@H]2[C@@]1(C)CO1 [Compound I-8] | significant inhibition |  |  |  |  |  | 16.3 | 140 | 110 | inhibition at 0.01 µM [2]: 11.8%
3 | CN(C=O)[C@H]1CC[C@H]2[C@@H]3CCC4=CC(=O)CC[C@]4(C)[C@H]3CC[C@]12C [Compound I-40] |  |  |  | 150 |  |  |  | 680 | 760 | fold lower inhibition than I-16 ([1]; vs I-16): approximately 4 fold
4 | C[C@]12CCC(=O)C=C1CC[C@@H]1[C@@H]2CC[C@]2(C)C(c3c[nH]cn3)=CC[C@@H]12 [Compound L-6, 17β-(4'-imidazolyl)-androsta-4,16-dien-3-one] | potent inhibitors | 10-50 times | 522 | 522 | 522 | potent inhibitors; also recorded: potent inhibition of 5α-reductase | 25.2 |  | 16 | IC50 [3, 7]: 2 nM; IC50 [4, 8]: 15.6 nM; IC50 [4, 9]: 16 nM
5 | C[C@@H](O)C1=CC[C@H]2[C@@H]3CC=C4C[C@@H](O)CC[C@]4(C)[C@H]3CC[C@]12C [Compound L-8] |  |  |  |  |  |  |  |  |  | IC50 ([1]; read-out: IC50 17α-hydroxylase/lyase (single entry), one value for 17α-hydroxylase/lyase, NI = no inhibition): 100 nM; inhibition at 0.01 µM [2]: 37.1%; inhibition at 0.1 µM ([3]; read-out: % Inhibition C17,20-lyase, [I] = 100 nM): 66.2%; inhibition at 0.4 µM ([3]; read-out: % Inhibition C17,20-lyase, [I] = 400 nM): 83.3%; inhibition at 0.4 µM ([4]; read-out: % Inhibition 17α-hydroxylase, [I] = 400 nM): 82.7%
6 | CC(=NO)C1=CC[C@H]2[C@@H]3CCC4=CC(=O)CC[C@]4(C)[C@H]3CC[C@]12C [Compound L-2, 16-dehydroprogesterone-20-oxime] | potent inhibitors of both enzymes | 10-50 times | 52.5 | 52 | 52.5 | potent inhibition of 5α-reductase; also recorded: potent inhibitor of human 5α-reductase | 45.5 |  | 8.7 | stronger activity than I-5 against 17α-hydroxylase/C17,20-lyase ([1]; vs I-5): twofold stronger activity; times less potent than finasteride (5α-reductase) ([2]; vs finasteride): 4-6 times; IC50 [3, 7]: 5 nM; IC50 [4, 8]: 8.65 nM; IC50 [4, 9]: 6 nM
7 | CC(=O)[C@@]1(Br)CC[C@H]2[C@@H]3CC=C4C[C@@H](O)CC[C@]4(C)[C@H]3CC[C@@]21C [Compound I-11] | poor inhibition |  |  |  |  |  |  | 970 | 1300 | 
